Reference: ChEMBL document CHEMBL1201862, “PubChem BioAssay data set” (2004)
One block for each compound: values may come before it. Active and inactive are the calls of the source.

Columns and labels:
[1] = target: DNA dC->dU-editing enzyme APOBEC-3A (Homo sapiens, UniProt P31941); assay: Dose Response confirmation of small molecule APOBEC3A DNA Deaminase Inhibitors via a fluorescence-based single-stranded DNA deaminase assay. [Related pubchem assays (depositor defined):AID493011, AID493024]; assay type: functional
[2] = target: DNA dC->dU-editing enzyme APOBEC-3G (Homo sapiens, UniProt Q9HC16); assay type: functional;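 also: Dose-response counterscreen measuring inhibition of APOBEC3G DNA deaminase activity, run while confirming APOBEC3A inhibitors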
Insulin-degrading enzyme = target: T1, Insulin-degrading enzyme (Homo sapiens, UniProt P14735); assay: Dose Response: Fluorescence polarization-based cell-based high throughput dose response assay for inhibitors of insulin-degrading enzyme (IDE). [Related pubchem assays: 434962 (Primary screen (IDE inhibitors in singlicate)), 449730 (Counterscreen (Cytotoxicity in triplicate)), 435028 (Confirmation (IDE inhibitors in triplicate)), 434984 (Summary …; assay type: functional
T1 sequence (P14735 whole entry): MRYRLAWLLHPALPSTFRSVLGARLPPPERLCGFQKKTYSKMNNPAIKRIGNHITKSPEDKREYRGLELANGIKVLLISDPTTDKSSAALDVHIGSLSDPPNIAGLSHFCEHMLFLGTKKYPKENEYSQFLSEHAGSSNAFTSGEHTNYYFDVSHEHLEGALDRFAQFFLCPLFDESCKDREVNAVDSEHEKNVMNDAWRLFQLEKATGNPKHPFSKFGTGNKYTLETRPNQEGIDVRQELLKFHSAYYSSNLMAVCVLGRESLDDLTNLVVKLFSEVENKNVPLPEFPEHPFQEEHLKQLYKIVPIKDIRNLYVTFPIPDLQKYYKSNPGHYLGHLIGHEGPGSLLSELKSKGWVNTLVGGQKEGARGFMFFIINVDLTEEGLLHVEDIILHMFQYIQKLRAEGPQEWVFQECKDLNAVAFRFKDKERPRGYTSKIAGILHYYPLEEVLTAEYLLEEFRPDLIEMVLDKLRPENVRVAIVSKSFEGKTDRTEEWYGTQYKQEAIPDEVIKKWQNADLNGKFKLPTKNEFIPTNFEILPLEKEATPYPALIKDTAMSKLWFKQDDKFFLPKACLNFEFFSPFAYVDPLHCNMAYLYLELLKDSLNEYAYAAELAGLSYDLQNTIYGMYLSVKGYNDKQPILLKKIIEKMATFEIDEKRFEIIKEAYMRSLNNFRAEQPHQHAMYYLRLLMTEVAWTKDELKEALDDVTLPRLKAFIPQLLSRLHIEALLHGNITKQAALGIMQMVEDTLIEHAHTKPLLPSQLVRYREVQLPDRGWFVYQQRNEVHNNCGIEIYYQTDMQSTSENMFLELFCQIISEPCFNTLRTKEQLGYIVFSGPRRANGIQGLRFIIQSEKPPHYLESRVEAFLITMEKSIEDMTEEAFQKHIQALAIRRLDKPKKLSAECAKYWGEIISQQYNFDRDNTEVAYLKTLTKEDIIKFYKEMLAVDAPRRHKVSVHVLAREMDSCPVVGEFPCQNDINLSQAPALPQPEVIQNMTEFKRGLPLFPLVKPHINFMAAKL

[3] = Counterscreen for IDE inhibitors: Luminescence-based cell-based high throughput dose response assay to identify compounds that are cytotoxic to HEK cells. [Related pubchem assays: 434962 (Primary screen (IDE inhibitors in singlicate)), 449730 (Counterscreen (Cytotoxicity in triplicate)), 435028 (Confirmation (IDE inhibitors in triplicate)) …; assay type: functional; details: HEK293
[4] = cytotoxicity in HEK-293T cells, dose response, cytotoxicity control for BCR NF-kB inhibitor project, luminescence, B-cell screen hits (AID 489021); assay type: functional, cell-based;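 also: HEK-293T cells carrying an NF-kB luciferase reporter; cells exposed to compound for about 14 hours before viability readout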
Large T antigen = Large T antigen (Simian virus 40, UniProt P03070); assay type: functional, Betapolyomavirus macacae;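 also: Confirmatory-stage PubChem screen for compounds that inhibit SV40 T antigen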
Protein Rev = target: T2, Protein Rev (Human immunodeficiency virus type 1 group M subtype B (isolate WMJ22)(HIV-1), UniProt P05866); assay: HIV-1 Rev-RRE RNA binding disruptors, dose response, biochemical, protein-RNA interaction (AID 842); set-up: species or system Human immunodeficiency virus 1
T2 sequence (P05866 whole entry): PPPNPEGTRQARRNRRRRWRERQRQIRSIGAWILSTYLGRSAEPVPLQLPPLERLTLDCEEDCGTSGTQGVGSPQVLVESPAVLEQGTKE

[5] = target: Eukaryotic translation initiation factor 4E (Mus musculus, UniProt P63073); assay: eIF4E–eIF4G protein interaction inhibitors, dose response, biochemical, TR-FRET (AID 855); assay type: functional;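 also: potency for disrupting eIF4E binding to eIF4GI seen as loss of FRET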
Coagulation factor XII = target: T3, Coagulation factor XII (Homo sapiens, UniProt P00748); assay: FXIIa inhibitor potency, concentration-response, biochemical (AID 716); assay type: functional
T3 sequence (P00748 whole entry): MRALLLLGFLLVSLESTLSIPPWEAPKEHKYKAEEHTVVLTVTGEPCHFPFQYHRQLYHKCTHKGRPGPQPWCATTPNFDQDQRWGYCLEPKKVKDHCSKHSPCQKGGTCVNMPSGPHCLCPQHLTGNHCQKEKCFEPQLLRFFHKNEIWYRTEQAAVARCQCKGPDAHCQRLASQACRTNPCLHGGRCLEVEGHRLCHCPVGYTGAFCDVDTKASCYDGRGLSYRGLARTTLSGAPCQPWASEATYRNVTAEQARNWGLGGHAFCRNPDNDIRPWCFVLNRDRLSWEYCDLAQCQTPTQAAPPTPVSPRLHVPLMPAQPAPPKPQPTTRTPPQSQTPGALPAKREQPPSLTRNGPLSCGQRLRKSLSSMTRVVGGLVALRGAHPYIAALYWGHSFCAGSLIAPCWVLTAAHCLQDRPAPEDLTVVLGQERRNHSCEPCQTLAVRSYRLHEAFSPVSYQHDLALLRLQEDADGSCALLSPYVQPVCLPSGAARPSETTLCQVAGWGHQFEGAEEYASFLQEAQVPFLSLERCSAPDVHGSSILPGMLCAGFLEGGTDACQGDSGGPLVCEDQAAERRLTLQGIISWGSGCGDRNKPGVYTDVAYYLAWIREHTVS

Aminopeptidase N = target: T4, Aminopeptidase N (Plasmodium falciparum FcB1/Columbia, UniProt O96935); assay: P. falciparum M1AAP inhibitors, biochemical, fluorogenic H-Leu-NHMec substrate, 1536-well (AID 1445); set-up: species or system Plasmodium falciparum 3D7, 3D7
T4 sequence (O96935 whole entry): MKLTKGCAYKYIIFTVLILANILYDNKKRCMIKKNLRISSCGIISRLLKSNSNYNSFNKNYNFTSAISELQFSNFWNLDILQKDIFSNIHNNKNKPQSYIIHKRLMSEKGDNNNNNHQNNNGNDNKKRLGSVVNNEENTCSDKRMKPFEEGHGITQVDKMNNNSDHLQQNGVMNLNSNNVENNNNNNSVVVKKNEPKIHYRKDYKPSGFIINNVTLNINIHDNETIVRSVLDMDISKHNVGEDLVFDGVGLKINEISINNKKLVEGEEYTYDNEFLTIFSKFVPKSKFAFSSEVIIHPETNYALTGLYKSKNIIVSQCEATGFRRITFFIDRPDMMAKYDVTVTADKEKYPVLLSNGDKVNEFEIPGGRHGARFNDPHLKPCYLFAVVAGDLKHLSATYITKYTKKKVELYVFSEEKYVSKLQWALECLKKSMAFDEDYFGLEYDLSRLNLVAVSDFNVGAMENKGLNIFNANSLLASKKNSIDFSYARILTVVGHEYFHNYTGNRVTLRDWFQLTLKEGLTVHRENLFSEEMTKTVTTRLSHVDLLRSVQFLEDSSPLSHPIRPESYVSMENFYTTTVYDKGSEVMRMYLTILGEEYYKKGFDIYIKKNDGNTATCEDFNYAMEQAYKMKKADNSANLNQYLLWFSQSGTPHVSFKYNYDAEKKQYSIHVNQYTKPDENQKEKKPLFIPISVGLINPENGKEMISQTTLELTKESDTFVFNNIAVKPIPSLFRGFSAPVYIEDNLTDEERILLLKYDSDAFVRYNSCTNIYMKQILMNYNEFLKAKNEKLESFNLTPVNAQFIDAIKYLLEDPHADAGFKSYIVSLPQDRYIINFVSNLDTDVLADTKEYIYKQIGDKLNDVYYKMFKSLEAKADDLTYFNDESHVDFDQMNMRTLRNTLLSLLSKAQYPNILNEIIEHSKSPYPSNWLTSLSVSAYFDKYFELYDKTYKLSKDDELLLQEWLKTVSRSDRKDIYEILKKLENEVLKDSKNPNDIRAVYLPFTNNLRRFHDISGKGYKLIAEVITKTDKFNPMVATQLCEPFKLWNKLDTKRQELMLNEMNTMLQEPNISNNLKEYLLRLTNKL

HEK293 [6] = assay: cells; assay type: functional, cell-based; details: Homo sapiens
[7] = target: T5, Nucleotide-binding oligomerization domain-containing protein 1 (Homo sapiens, UniProt Q9Y239); assay: NOD1 signaling inhibitors, SAR follow-up, revised (AID 2333); assay type: functional
T5 sequence (Q9Y239 whole entry): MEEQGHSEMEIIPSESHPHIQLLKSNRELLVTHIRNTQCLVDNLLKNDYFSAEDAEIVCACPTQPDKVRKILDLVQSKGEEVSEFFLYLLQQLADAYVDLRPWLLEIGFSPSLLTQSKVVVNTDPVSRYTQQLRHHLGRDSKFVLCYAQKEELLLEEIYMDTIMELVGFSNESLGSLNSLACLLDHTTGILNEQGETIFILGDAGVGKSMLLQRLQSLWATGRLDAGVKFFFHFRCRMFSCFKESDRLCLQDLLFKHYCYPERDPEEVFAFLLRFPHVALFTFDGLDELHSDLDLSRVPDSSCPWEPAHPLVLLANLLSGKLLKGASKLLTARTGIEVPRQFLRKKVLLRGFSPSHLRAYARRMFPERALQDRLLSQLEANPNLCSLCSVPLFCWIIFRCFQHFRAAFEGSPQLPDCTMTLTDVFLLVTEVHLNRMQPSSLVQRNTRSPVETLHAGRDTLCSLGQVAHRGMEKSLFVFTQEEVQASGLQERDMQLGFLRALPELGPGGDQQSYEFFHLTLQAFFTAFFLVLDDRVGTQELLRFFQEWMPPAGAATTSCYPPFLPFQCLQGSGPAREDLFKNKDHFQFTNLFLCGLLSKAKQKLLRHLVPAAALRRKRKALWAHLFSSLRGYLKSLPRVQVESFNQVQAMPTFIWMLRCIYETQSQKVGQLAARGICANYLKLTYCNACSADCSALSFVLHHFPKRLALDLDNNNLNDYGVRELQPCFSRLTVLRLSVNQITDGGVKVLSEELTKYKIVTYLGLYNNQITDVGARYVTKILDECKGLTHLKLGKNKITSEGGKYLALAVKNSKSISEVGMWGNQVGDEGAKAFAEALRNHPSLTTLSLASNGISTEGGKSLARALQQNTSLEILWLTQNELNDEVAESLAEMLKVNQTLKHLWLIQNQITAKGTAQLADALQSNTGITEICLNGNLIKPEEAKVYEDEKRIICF

HEK293 [8] = assay: cells; details: Homo sapiens
HEK293 [9] = assay: NOD1 signaling inhibitors, primary screen, cell-based, luminescence, uHTS (AID 1578); assay type: functional; details: Homo sapiens
HEK293 [10] = assay: cells; assay type: functional, cell-based; details: Homo sapiens; remark: listed apart in the source
[11] = cytotoxicity in HEK-293T cells, dose response, cytotoxicity control for TCR NF-kB inhibitor project, luminescence, T-cell screen hits (AID 489026); assay type: functional, cell-based;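 also: cells exposed to compound about 14 hours before the viability readout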
Tumor necrosis factor = Tumor necrosis factor (Homo sapiens, UniProt P01375); assay: TNFa-triggered NF-kB activation inhibitors, SAR follow-up, cell-based, revised (AID 2337); assay type: functional
HEK293 [12] = assay: NOD2 signaling inhibitors in MDP-stimulated cells, cell-based, uHTS, luminescence (AID 2001); assay type: functional; details: Homo sapiens
[13] = Luminescence Cell-Based Dose Retest to Confirm Inhibitors of Cancer Stem Cells. [Related pubchem assays (depositor defined):AID2717, AID2721]; assay type: functional; details: Homo sapiens
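For AC50 in this document: cells exposed to compound for roughly 70 hours or longer before luminescence read.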

DNA dC->dU-editing enzyme APOBEC-3A, sequence (P31941 whole entry): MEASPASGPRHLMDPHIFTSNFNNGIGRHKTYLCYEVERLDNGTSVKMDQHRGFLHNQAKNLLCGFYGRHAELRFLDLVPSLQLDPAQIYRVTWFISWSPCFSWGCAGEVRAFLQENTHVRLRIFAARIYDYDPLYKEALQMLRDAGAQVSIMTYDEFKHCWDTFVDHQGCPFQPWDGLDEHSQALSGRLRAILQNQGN
DNA dC->dU-editing enzyme APOBEC-3G, sequence (Q9HC16 whole entry): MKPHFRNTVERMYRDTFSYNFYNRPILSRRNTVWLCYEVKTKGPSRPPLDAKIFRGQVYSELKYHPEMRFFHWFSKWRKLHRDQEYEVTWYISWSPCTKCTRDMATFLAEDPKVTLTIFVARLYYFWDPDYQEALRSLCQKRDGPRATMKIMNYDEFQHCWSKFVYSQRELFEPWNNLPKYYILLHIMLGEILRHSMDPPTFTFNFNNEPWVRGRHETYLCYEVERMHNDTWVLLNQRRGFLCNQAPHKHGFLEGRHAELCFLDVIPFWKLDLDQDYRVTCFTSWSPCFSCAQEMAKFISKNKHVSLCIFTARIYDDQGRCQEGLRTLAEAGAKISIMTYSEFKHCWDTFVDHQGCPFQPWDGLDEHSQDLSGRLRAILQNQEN
Tumor necrosis factor, sequence (P01375 whole entry): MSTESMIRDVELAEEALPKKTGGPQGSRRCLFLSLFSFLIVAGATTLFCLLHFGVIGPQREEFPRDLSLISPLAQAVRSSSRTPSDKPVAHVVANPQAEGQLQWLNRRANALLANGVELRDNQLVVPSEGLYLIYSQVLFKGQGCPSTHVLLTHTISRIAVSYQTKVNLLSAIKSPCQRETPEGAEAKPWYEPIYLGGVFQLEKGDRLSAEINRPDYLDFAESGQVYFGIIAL
Large T antigen, sequence (P03070 whole entry): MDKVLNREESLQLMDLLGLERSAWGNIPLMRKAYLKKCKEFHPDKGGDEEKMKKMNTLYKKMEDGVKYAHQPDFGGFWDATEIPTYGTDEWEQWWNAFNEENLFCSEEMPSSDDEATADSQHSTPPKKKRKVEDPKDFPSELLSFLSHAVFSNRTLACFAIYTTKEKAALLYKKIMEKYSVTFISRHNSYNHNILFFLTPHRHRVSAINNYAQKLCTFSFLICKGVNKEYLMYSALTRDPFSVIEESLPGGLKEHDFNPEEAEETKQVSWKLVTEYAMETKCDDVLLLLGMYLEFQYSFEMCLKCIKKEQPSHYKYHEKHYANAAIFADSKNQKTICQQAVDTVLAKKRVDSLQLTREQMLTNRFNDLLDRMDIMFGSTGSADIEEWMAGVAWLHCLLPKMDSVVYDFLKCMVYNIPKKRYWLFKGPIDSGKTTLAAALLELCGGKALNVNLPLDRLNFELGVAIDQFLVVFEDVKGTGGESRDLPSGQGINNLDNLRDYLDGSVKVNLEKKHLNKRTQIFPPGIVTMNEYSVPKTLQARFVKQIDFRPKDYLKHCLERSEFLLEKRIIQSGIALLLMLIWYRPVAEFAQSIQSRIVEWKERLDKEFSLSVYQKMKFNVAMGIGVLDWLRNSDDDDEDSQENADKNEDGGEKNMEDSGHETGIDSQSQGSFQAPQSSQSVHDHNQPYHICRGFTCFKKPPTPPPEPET
Eukaryotic translation initiation factor 4E, sequence (P63073 whole entry): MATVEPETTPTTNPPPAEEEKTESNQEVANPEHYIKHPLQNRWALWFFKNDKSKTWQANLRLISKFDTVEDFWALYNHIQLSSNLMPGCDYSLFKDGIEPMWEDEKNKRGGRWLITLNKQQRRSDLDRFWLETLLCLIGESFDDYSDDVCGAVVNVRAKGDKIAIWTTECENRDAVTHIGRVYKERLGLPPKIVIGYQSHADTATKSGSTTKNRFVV

Structure (SMILES): COc1cc(C(N)=O)cc(Br)c1OC
- IC50 [1]: 9.8 µM (active)
- IC50 [2]: 12.2 µM (active)

Structure (SMILES): CCc1sc(C(=O)Nc2cccc(-n3cnnn3)c2)cc1C
- IC50 (Insulin-degrading enzyme): 17.3 µM (not active)
- IC50 [3]: 20.7 µM (not active)
- IC50 [4]: > 80 µM (inactive)

Structure (SMILES): CCOc1cc(-c2ccc(N)c(OCC)c2)ccc1N
- IC50 (Large T antigen): 12.3 µM (active)
- IC50 (Protein Rev): 2.47 µM (active)

- IC50 [5]: 50 µM (inactive)
Structure (SMILES): O=C(NCc1ccc2c(c1)OCO2)c1ccc2c(c1)OCCO2

- IC50 (Coagulation factor XII): > 50 µM (inactive)
Structure (SMILES): C=CCSc1nnc(Cc2cc(O)nc(O)n2)n1-c1cc(C)ccc1C

- IC50 (Aminopeptidase N): 68.4 µM (active)
Structure (SMILES): COc1ccc(S(=O)(=O)N2CCC(C(=O)NCc3ccccc3)CC2)cc1OC

Structure (SMILES): CC(=O)c1cccc(OCC(=O)N2CCN(c3ccc(C(F)(F)F)cn3)CC2)c1
- IC50 (Insulin-degrading enzyme): 19.2 µM (not active)
- IC50 [3]: 19.4 µM (not active)

Structure (SMILES): O=S(=O)(c1ccc(SCc2cccc(Cl)c2)nc1)N1CCCC1
- IC50 (Insulin-degrading enzyme): > 55.9 µM (not active)
- IC50 [3]: 27.1 µM (not active)

Structure (SMILES): CC1CCC(C(C)C)C(OCC(O)C[N+]2(C)CCCCC2)C1 (stereo unspecified)
- IC50 [1]: 2.6 µM (active)
- IC50 [2]: 3.66 µM (active)

Structure (SMILES): CC(=O)N1c2ccc(S(=O)(=O)N3CCC(C(=O)Nc4cccc(C)n4)CC3)cc2CC1C (stereo unspecified)
- IC50 (HEK293 [6]): 8.99 µM (active)
- IC50 [7]: 4.8 µM (active)
- IC50 (HEK293 [8]): > 20 µM (inactive)
- EC50 (HEK293 [9]): 2.79 µM (active)
- IC50 (HEK293 [10]): > 20 µM (inactive)
- IC50 [11]: > 80 µM (inactive)
- IC50 (Tumor necrosis factor): 6.02 µM (active)
- IC50 (HEK293 [12]): 12.4 µM (inactive)

Structure (SMILES): NC(=O)c1sc(-c2ccsc2)cc1NS(=O)(=O)c1ccc(C(F)(F)F)cc1
- IC50 (Aminopeptidase N): 22.1 µM (active)
- AC50 [13]: 11.7 µM (active)

- IC50 (Coagulation factor XII): > 50 µM (inactive)
Structure (SMILES): CC(=O)c1cccc(NS(=O)(=O)c2c(C)noc2C)c1

- IC50 (Aminopeptidase N): 102 µM (active)
Structure (SMILES): NC(=O)c1ccc(NC(=O)c2ccccc2S(=O)(=O)c2ccccc2[N+](=O)[O-])cc1

Structure (SMILES): CC(C)(C)c1ccc(C(=O)ONC(=N)c2cccc([N+](=O)[O-])c2)cc1
- IC50 [7]: > 20 µM (inactive)
- IC50 (Tumor necrosis factor): > 20 µM (inactive)

- IC50 (Coagulation factor XII): > 50 µM (inactive)
Structure (SMILES): CN1CCN(C(=O)c2ccc3c(=O)n(Cc4ccc(Cl)cc4)c(=S)[nH]c3c2)CC1
